Test results: patent publication US12216125B2, “Method and kit for isotope-labelling of a glutathione-containing biological sample for mass spectrometry” (TECHNISCHE UNIVERSITÄT WIEN, priority 2018, dated 2025)

Tested on: A549 lung carcinoma cells
Experiment: Oxidative stress induction in A549 cells, GSH/GSSG measured by LC-MS/MS
Type: cell-based, human
Details: 100 μmol/L H2O2 for 15 min
Procedure: Cell culture: A549 human lung carcinoma cells were obtained from CLS Cell Lines Service, Eppelheim, Germany, and were cultured in RPMI medium supplemented with 10% fetal bovine serum and 2 mmol/L glutamine in a 5% CO2, 37° C. incubator. For H2O2 treatment, cells were seeded in 12-well plates (300000 cells/well) and after a day in culture treated with 500 μl of control (Ca2+, Mg2+-PBS) or 100 μmol/L H2O2 in Ca2+, Mg2+-PBS for 15 min followed by two PBS washing steps and the NEM (2.5 mmol/L) incubation step. The detailed stabilisation workflow is illustrated in FIG. 1 and example 2.
Method overview: The method was tested and fully optimized for three different sample types: cells, blood and tissue. In clinical measurements available sample amount is often a limiting factor. The high sensitivity of the presented method enables analysis of scarce samples as minimal sample amounts are required. Typically, 5 μL of blood, 3-5 mg of tissue sample or 300.000 cells were used as starting material. […] All three analytes GSH-NEM, GSH-d5-NEM and ^13C, ^15N-GSH-d5-NEM (IS) were then simultaneously measured by LC-MS/MS using an MRM-based approach (FIG. 1, step 4), see also example 4.
Chromatography was carried out on a Dionex UltiMate 3000 system equipped with a Zorbax SB-C18 column (50 mm×4.6 mm, 1.8 μm, Agilent, USA). […] The sum of areas under both peaks was used for integration and quantification. […]

**Q.** `OO` [H2O2] was tested. Which GSH/GSSG ratio (GSSG measured as GSH-d5-NEM) did it give?
**A.** drastically reduced

**Q.** And the “intracellular GSH values” (vs control PBS)?
**A.** depleted
